#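 Step 1: Grow cells in 96-well plates. Step 2: Expose to compound for 48 hours at 5 concentrations. Step 3: Interpolate endpoints linearly; if unreached, use highest concentration. GI50 is the concentration that inhibits growth by half. TGI denotes the concentration required for complete inhibition of growth.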
# What was measured:
# Assay in all cases: NCI tumour cell line growth inhibition, 48 h
# [1] = system: HT29 colon
# [2] = system: T-47D breast
# [3] = system: SF-295 CNS
# [4] = system: SF-268 CNS
# [5] = system: ACHN renal
# [6] = system: SF-539 CNS
# [7] = system: NCI-H522 lung
# [8] = system: HOP-92 NSCLC
# [9] = system: A498 renal
# [10] = system: NCI-H460 lung
# [11] = system: HCC-2998 colon
# [12] = system: UO-31 renal
# [13] = system: SR leukemia
# [14] = system: MOLT-4 leukemia
# [15] = system: SNB-19 CNS
# [16] = system: HOP-62 NSCLC
# [17] = system: OVCAR-3 ovarian
# [18] = system: KM12 colon
# [19] = system: SK-OV-3 ovarian
# [20] = system: HL-60(TB) leukemia
# [21] = system: NCI-H23 lung
# [22] = system: OVCAR-8 ovarian
# [23] = system: HCT-116 colon
# [24] = system: RXF 393 renal
# [25] = system: TK-10 renal
# [26] = system: A549 NSCLC
# [27] = system: SW-620 colon
# [28] = system: SK-MEL-28 melanoma
# [29] = system: RPMI-8226 leukemia
# [30] = system: M14 melanoma
# [31] = system: HCT-15 colon
# [32] = system: IGROV1 ovarian
# [33] = system: DU-145 prostate
# [34] = system: 786-0 renal
# [35] = system: HS 578T breast
# [36] = system: NCI-H226 lung
# [37] = system: NCI/ADR-RES ovarian
# [38] = system: COLO 205 colon
# [39] = system: SN12C renal
# [40] = system: U251 CNS
# [41] = system: MCF7 breast
# [42] = system: EKVX NSCLC
# [43] = system: OVCAR-4 ovarian
# [44] = system: MDA-MB-435
# [45] = system: PC-3 prostate
# [46] = system: MDA-MB-231 breast
# [47] = system: OVCAR-5 ovarian
# [48] = system: SNB-75 CNS
# [49] = system: SK-MEL-2 melanoma
# [50] = system: CCRF-CEM leukemia
# [51] = system: UACC-62 melanoma
# [52] = system: SK-MEL-5 melanoma
# [53] = system: UACC-257 melanoma
# [54] = system: BT-549 breast
# [55] = system: MALME-3M melanoma
# [56] = system: LOX IMVI melanoma
compound,measurement,setting,value
COc1cc(C(=O)/C=C/c2cccnc2Nc2ccccc2)cc(OC)c1OC,GI50,[1],0.514 µM
same,TGI,[1],2.15 µM
same,GI50,[2],1.43 µM
same,TGI,[2],3.07 µM
same,GI50,[3],1.87 µM
same,TGI,[3],3.78 µM
same,GI50,[4],1.55 µM
same,TGI,[4],3.09 µM
same,GI50,[5],1.28 µM
same,TGI,[5],2.57 µM
same,GI50,[6],1.65 µM
same,TGI,[6],3.12 µM
same,GI50,[7],0.493 µM
same,TGI,[7],1.76 µM
same,GI50,[8],0.392 µM
same,TGI,[8],2.07 µM
same,GI50,[9],1.42 µM
same,TGI,[9],2.75 µM
same,GI50,[10],1.8 µM
same,TGI,[10],3.63 µM
same,GI50,[11],1.18 µM
same,TGI,[11],2.46 µM
same,GI50,[12],1.19 µM
same,TGI,[12],2.57 µM
same,GI50,[13],0.346 µM
same,TGI,[13],> 100 µM
same,GI50,[14],2.68 µM
same,TGI,[14],19.5 µM
same,GI50,[15],1.48 µM
same,TGI,[15],2.86 µM
same,GI50,[16],0.657 µM
same,TGI,[16],1.88 µM
same,GI50,[17],0.429 µM
same,TGI,[17],1.48 µM
same,GI50,[18],0.929 µM
same,TGI,[18],2.54 µM
same,GI50,[19],1.6 µM
same,TGI,[19],2.94 µM
same,GI50,[20],1.52 µM
same,TGI,[20],4.98 µM
same,GI50,[21],1.43 µM
same,TGI,[21],3 µM
same,GI50,[22],1.27 µM
same,TGI,[22],3.49 µM
same,GI50,[23],0.337 µM
same,TGI,[23],1.31 µM
same,GI50,[24],1.12 µM
same,TGI,[24],2.37 µM
same,GI50,[25],1.82 µM
same,TGI,[25],3.33 µM
same,GI50,[26],1.3 µM
same,TGI,[26],2.86 µM
same,GI50,[27],0.422 µM
same,TGI,[27],1.66 µM
same,GI50,[28],1.58 µM
same,TGI,[28],2.93 µM
same,GI50,[29],0.349 µM
same,TGI,[29],2.05 µM
same,GI50,[30],1.5 µM
same,TGI,[30],2.92 µM
same,GI50,[31],0.744 µM
same,TGI,[31],2.4 µM
same,GI50,[32],2.37 µM
same,TGI,[32],5.3 µM
same,GI50,[33],0.723 µM
same,TGI,[33],1.94 µM
same,GI50,[34],1.29 µM
same,TGI,[34],2.65 µM
same,GI50,[35],2.15 µM
same,TGI,[35],7.93 µM
same,GI50,[36],1.23 µM
same,TGI,[36],2.58 µM
same,GI50,[37],1.03 µM
same,TGI,[37],4.56 µM
same,GI50,[38],1.29 µM
same,TGI,[38],2.62 µM
same,GI50,[39],1.21 µM
same,TGI,[39],2.55 µM
same,GI50,[40],1.12 µM
same,TGI,[40],2.39 µM
same,GI50,[41],0.357 µM
same,TGI,[41],1.64 µM
same,GI50,[42],1.61 µM
same,TGI,[42],3.04 µM
same,GI50,[43],1.45 µM
same,TGI,[43],2.76 µM
same,GI50,[44],0.637 µM
same,TGI,[44],2.08 µM
same,GI50,[45],1.1 µM
same,TGI,[45],3.18 µM
same,GI50,[46],1.4 µM
same,TGI,[46],3.09 µM
same,GI50,[47],1.54 µM
same,TGI,[47],3.11 µM
same,GI50,[48],1.13 µM
same,TGI,[48],2.34 µM
same,GI50,[49],1.66 µM
same,TGI,[49],3.4 µM
same,GI50,[50],0.321 µM
same,TGI,[50],1.19 µM
same,GI50,[51],1.29 µM
same,TGI,[51],2.6 µM
same,GI50,[52],1.34 µM
same,TGI,[52],2.64 µM
same,GI50,[53],1.51 µM
same,TGI,[53],2.86 µM
same,GI50,[54],1.26 µM
same,TGI,[54],2.54 µM
same,GI50,[55],1.92 µM
same,TGI,[55],3.84 µM
same,GI50,[56],0.499 µM
same,TGI,[56],1.82 µM

# Source: PubChem BioAssay (NCI)
